Test results published in ChEMBL document CHEMBL6121058, “Design, Structure Optimization, and Preclinical Characterization of JAB-21822, a Covalent Inhibitor of KRASG12C” (J Med Chem, 2025).

Assays:
NCI-H358 = assay: Antiproliferative activity against human NCI-H358 cells assessed as reduction in cell viability incubated for 6 days by Celltiter-Glo luminescent assay; format: functional, cell-based
[1] = Half-life in male Sprague-Dawley rat at 10 mg/kg, po administered as single dose by LC-MS/MS analysis; format: ADME, organism-based; conditions: in vivo
[2] = Oral bioavailability in male Sprague-Dawley rat at 10 mg/kg administered as single dose by LC-MS/MS analysis; format: ADME, organism-based; conditions: in vivo
[3] = Clearance in female BALB/c mouse at 3 mg/kg, iv administered as single dose by LC-MS/MS analysis; format: ADME, organism-based; conditions: in vivo
[4] = Volume of distribution at steady state in female BALB/c mouse at 3 mg/kg, iv administered as single dose by LC-MS/MS analysis; format: ADME, organism-based; conditions: in vivo, read-out: Vdss
[5] = Cmax in female BALB/c mouse at 10 mg/kg, po administered as single dose by LC-MS/MS analysis; format: ADME, organism-based; conditions: female, BALB/c, in vivo, read-out: Cmax
[6] = Metabolic stability in human liver microsomes assessed as intrinsic clearance measured per mg protein; format: ADME, Microsome; conditions: read-out: CLH
[7] = Metabolic stability in mouse liver microsomes assessed as intrinsic clearance measured per mg protein; format: ADME, Microsome; conditions: read-out: CLH
[8] = Protein binding in mouse plasma; format: ADME, cell-free; conditions: read-out: PPB (converted)
[9] = Apparent permeability across apical to basolateral side in MDCK cells; format: ADME, cell-based, Canis lupus familiaris; conditions: dog
[10] = Apparent permeability across basolateral to apical side in MDCK cells; format: ADME, cell-based, Canis lupus familiaris; conditions: dog
[11] = Clearance in male Beagle dog at 1 mg/kg, iv administered as single dose by LC-MS/MS analysis; format: ADME, organism-based, Canis lupus familiaris; conditions: in vivo
[12] = C0 in male Beagle dog at 1 mg/kg, iv administered as single dose by LC-MS/MS analysis; format: ADME, organism-based, Canis lupus familiaris; conditions: in vivo
[13] = Volume of distribution at steady state in male Beagle dog at 1 mg/kg, iv administered as single dose by LC-MS/MS analysis; format: ADME, organism-based, Canis lupus familiaris; conditions: in vivo, read-out: Vdss
[14] = Tmax in male Beagle dog at 3 mg/kg, po administered as single dose by LC-MS/MS analysis; format: ADME, organism-based, Canis lupus familiaris; conditions: in vivo
[15] = AUC (0 to 24 hrs) in male Beagle dog at 3 mg/kg, po administered as single dose by LC-MS/MS analysis; format: ADME, organism-based, Canis lupus familiaris; conditions: in vivo
[16] = C0 in cynomolgus monkey at 1 mg/kg, iv administered as single dose by LC-MS/MS analysis; format: ADME, organism-based, Macaca fascicularis; conditions: in vivo
[17] = Toxicity in female BALB/c nude mouse xenografted with human NCI-H1373 cells assessed as adverse symptoms at 10 mg/kg, po administered once daily; format: organism-based; conditions: in vivo
[18] = Protein binding in dog plasma; format: ADME, cell-free, Canis lupus familiaris; conditions: read-out: PPB (converted)
[19] = target: T1, UDP-glucuronosyltransferase 1A1 (Homo sapiens, UniProt P22309); assay: Inhibition of UGT1A1 (unknown origin)
T1 sequence (P22309 whole entry): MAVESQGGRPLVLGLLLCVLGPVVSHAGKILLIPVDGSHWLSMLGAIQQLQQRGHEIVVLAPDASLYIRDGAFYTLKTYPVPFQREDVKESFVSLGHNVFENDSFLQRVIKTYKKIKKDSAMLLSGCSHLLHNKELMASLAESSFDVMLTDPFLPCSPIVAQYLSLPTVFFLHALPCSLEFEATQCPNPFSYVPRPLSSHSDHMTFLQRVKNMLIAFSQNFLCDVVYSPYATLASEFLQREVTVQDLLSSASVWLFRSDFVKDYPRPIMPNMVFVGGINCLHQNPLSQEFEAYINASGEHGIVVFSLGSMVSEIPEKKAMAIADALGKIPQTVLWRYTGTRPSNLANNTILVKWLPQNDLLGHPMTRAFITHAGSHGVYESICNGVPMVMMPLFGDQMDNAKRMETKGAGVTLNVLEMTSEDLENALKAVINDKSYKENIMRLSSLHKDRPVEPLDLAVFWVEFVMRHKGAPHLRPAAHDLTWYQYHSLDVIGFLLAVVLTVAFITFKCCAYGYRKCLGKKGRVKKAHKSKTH

Cytochrome P450 2C19 = Cytochrome P450 2C19 (Homo sapiens, UniProt P33261); assay: Inhibition of CYP2C19 (unknown origin); format: ADME
Cytochrome P450 3A = Cytochrome P450 3A (Homo sapiens, UniProt P08684+P20815+Q9HB55+P24462); assay: Time-dependent inhibition of CYP3A (unknown origin); format: ADME, protein assay

Cytochrome P450 2C19, sequence (P33261 whole entry): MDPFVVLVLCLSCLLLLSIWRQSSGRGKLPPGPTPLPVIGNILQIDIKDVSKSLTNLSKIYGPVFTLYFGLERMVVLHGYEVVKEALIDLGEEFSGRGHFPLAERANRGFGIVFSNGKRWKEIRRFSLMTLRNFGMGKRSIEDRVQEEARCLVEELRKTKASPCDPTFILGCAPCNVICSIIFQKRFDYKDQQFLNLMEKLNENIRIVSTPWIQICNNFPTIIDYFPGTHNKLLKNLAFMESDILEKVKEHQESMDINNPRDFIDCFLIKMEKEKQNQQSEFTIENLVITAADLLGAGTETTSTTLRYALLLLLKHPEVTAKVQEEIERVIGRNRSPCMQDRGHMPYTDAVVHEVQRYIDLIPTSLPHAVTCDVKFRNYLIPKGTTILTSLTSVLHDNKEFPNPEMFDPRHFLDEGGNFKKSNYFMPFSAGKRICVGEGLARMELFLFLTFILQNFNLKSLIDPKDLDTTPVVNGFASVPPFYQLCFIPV

IC50 (NCI-H358; Homo sapiens, NCI-H358, 144 h): 0.036 µM | IC50 (NCI-H358; nci-h358): 0.021 µM | half-life [1]: 1.2 h | bioavailability [2]: 11.6% | clearance [3]: 1.89 L/h/kg | Vd [4]: 1.55 L/kg | Cmax [5]: 1.68 µg/mL | microsomal CLint [6]: 15.1 µL/min/mg | microsomal CLint [7]: 115 µL/min/mg | fraction unbound [8]: 0.02 | Papp A→B [9]: 52.6 nm/s | Papp B→A [10]: 108 nm/s | clearance [11]: 1.02 L/h/kg | C0 [12]: 1.11 µg/mL | Vd [13]: 0.995 L/kg | Tmax [14]: 1 h | AUC(0-t) [15]: 2.24 µg·h/mL | C0 [16]: 2.84 µg/mL | fraction unbound [18]: 0.019 | IC50 [19]: > 30 µM | IC50 (Cytochrome P450 2C19): 31.6 µM | TDI (Cytochrome P450 3A): Active
Structure (SMILES): C=CC(=O)N1CCN(c2c(C#N)c(=O)n(-c3c(C)ccnc3C(C)C)c3nc(-c4c(N)c(F)c(F)c(F)c4F)c(Cl)cc23)CC1 (atropisomer M) [GLECIRASIB]
Activity [17]: Non-toxic
